Data reported in US10350311B2, “Iohexol powder and method of using the same” (Otsuka Pharmaceutical Co., Ltd., priority 2014, dated 2019).
One block for each molecule: values may come before it.

What was measured:
Format in all cases: physicochemical
[1] = Particle size distribution (D10, D50, D90); details: for Particle Size distribution (μm) D50: Table 6, Example 5; for Particle Size distribution (μm) D10 / Particle Size distribution (μm) D90: Table 6
Source text: As used herein, the “D90” of a particulate material denotes a diameter value for the particles in the material at which about 90% of the particles have a diameter below the diameter value. For example, in a sample with a D90 of 20 μm, 90% of the particles in the sample have a diameter of 20 μm or less. As used herein, the “D50” of a material denotes a diameter value for the particles in the material at which about 50% of the particles have a diameter below the diameter value. For example, in a sample with a D50 of 10 μm, 50% of the particles in the sample have a diameter of 10 μm or less. As used herein, the “D10” of a material denotes a diameter value for the particles in the material at which about 10% of the particles have a diameter below the diameter value. For example, in a sample with a D10 of 5 μm, 10% of the particles in the sample have a diameter of 5 μm or less.

[2] = Exposure to air humidity / moisture uptake; details: exposed to ambient air humidity for 120 hours, SEM
Procedure: Crystallized iohexol samples were also examined by SME analysis for the influence of air humidity (i.e., humidity of ambient/room air). Crystallized iohexol samples were exposed to air humidity for 120 hours.

[3] = Dissolution time in water by Modified United States Pharmacopeia Method 641
Procedure: As used herein, the term “Modified United States Pharmacopeia Method 641” denotes a modified form of the Standard United States Pharmacopeia Method 641, where the Modified United States Pharmacopeia Method 641 is carried out as follows: • Place 1.8 g of the particulate iohexol in a meticulously clean, glass-stoppered, 50 mL glass cylinder approximately 1:10 diameter to height in size. • Fill 40 mL of tap water adjusted to 10° C. (±2° C.) into the glass cylinder. • Immediately start shaking the glass cylinder and start recording total time. • Shake the glass cylinder with an up and down movement, keeping the frequency at 12-13 movements per 5 seconds. • After 20 seconds observe for 3 seconds for completeness of dissolution. • Evaluate after 3 seconds, when the bubbles disappear, comparing with pure solvent. • If dissolved completely, record “dissolved in 20 seconds”. • If not dissolved completely, continue shaking for a total time 30 sec • Repeat the dissolution evaluation at 30 seconds, 40 seconds, 1 min., and 1 min. 30 seconds. • Always repeat the dissolution evaluation using the same procedure. • If dissolved completely at time point 1 min 30 sec, record “dissolved in NMT 1 min 30 sec”. • If not dissolved, record “not dissolved in 1 min 30 sec”. 20 oz (600 ml) modified beverage PET bottle for Iohexol Powder for Oral Solution product; 50 ml testing glass cylinder; Tap water. Samples were tested using the Modified USP Method <641> as described herein.

[4] = Specific surface area by low-temperature nitrogen adsorption (BET); details: for Specific Area measured [m^2/g]: BET isotherm, nitrogen adsorption; for Specific Area estimated [m^2/g]: calculated from SEM geometry assuming non-porous spheres; for Specific surface area m^2/g: Table 6, Example 5
Procedure: Specific surface area was measured using a low-temperature nitrogen adsorption apparatus, a Pulse Chemisorb 2700.
The specific surface area data, which were evaluated using a BET isotherm, support the nonporous nature/character of the particles. The measured value of the specific surface area was about 2.8 m^2/g, which is consistent with the calculation of the specific surface area of hypothetical material which consists of non-porous spheres with a radius of 3 μm. Considering the skeletal density of crystallized iohexol (2.097 g/cm3), the calculated specific surface area of this hypothetical material is about 4 m^2/g. All data provided by analyses appear to support the conclusion that the crystallized iohexol solid material contains agglomerates consisting of small nonporous particles and that the total specific area is the sum of the outer surface areas of these particles.
Experimentally obtained values of the specific surface area are very low, which is typical of macroporous to non-porous materials. Experimental specific surface area values for all samples are in good agreement with the estimated values based on SEM image analysis, (calculating the particle surface area based on the geometrical shape of particles, i.e., and assuming that the particles are not porous (confirmed by mercury porosimetry as discussed above). Individual values and comparisons of the amount of nitrogen desorption for each sample are summarized in Table 5.

[5] = Skeletal density by helium pycnometer; details: for Skeletal density: Table 5, Example 3; for Skeletal density (g/cm3): Table 6
Procedure: As used herein, the term “interparticle spacing” denotes the percentage of the “bulk” particle volume which is free space. The interparticle spacing can be calculated from the bulk density and skeletal density. As discussed above, bulk density refers to the density determined by dividing the weight of the sample by its measured volume, for example using the USP <616> method. The skeletal density, sometimes referred to as the “true density,” is determined by dividing the weight of a sample by its “true” volume—i.e., the volume excluding interstitial voids and any open porosity in the sample (e.g., determined by gas displacement techniques). […] The porosity of the iohexol particles was also investigated using mercury intrusion, and the skeletal density was determined by helium pycnometer and physical adsorption of nitrogen.

[6] = Interparticle spacing calculated from bulk and skeletal density
Procedure: As used herein, the term “interparticle spacing” denotes the percentage of the “bulk” particle volume which is free space. The interparticle spacing can be calculated from the bulk density and skeletal density. As discussed above, bulk density refers to the density determined by dividing the weight of the sample by its measured volume, for example using the USP <616> method. The skeletal density, sometimes referred to as the “true density,” is determined by dividing the weight of a sample by its “true” volume—i.e., the volume excluding interstitial voids and any open porosity in the sample (e.g., determined by gas displacement techniques).

[7] = Bulk density; details: Table 6
Source text: As used herein, the term “bulk density” of a material denotes total mass of the material divided by the total volume occupied by the material. As used herein, the term “interparticle spacing” denotes the percentage of the “bulk” particle volume which is free space. The interparticle spacing can be calculated from the bulk density and skeletal density. As discussed above, bulk density refers to the density determined by dividing the weight of the sample by its measured volume, for example using the USP <616> method. The skeletal density, sometimes referred to as the “true density,” is determined by dividing the weight of a sample by its “true” volume—i.e., the volume excluding interstitial voids and any open porosity in the sample (e.g., determined by gas displacement techniques). Interparticle spacing can be calculated from the bulk density and skeletal density as exemplified herein: if the bulk density of a particular iohexol sample is ˜0.9 g/cm^3, the corresponding “bulk” volume for 1 g of the sample is 1.11 cm^3; and if the skeletal density of the sample is ˜2 g/cm^3, the corresponding “skeletal” volume (i.e. volume with porosity excluded) for 1 g of this sample is 0.5 cm^3. The difference between the “bulk” volume and “skeletal” volume, 0.61 cm^3, represents the volume of the free space (porosity) in the particle. The interparticle spacing is the difference between the “skeletal” volume and bulk volume, divided by the “bulk” volume, expressed as a percentage (i.e. 0.61 cm^3/1.11 cm^3=55% in this example).

[8] = Table 5, listed as crystallized iohexol

Particle Size distribution (μm) D50 ([1]; listed as crystallized iohexol): 10 μm | Dissolution, in words ([3]; Example 2): dissolved rapidly | Specific Area measured [m^2/g] ([4]; Table 5): 2.8 m^2/g | Specific Area measured [m^2/g] [4, 8]: about 2.8 m^2/g | Specific Area estimated [m^2/g] ([4]; Table 5): 4.0^a m^2/g | Specific Area estimated [m^2/g] [4, 8]: about 4 m^2/g | Relative desorbed amount Ad/Ad(crystallized) ([4]; Table 5, nitrogen desorbed relative to crystallized iohexol): 1 | Specific surface area m^2/g ([4]; listed as crystallized iohexol): about 4 m^2/g | Skeletal density [5]: 2.097 g/mL | Skeletal density ([5]; listed as crystallized iohexol): 2.097 g/mL
Compound: CC(=O)N(CC(O)CO)c1c(I)c(C(=O)NCC(O)CO)c(I)c(C(=O)NCC(O)CO)c1I (stereo not shown) [CRI, iohexol]
Influence of air humidity on the particles [2]: sintering of originally separated particles was observed

Particle Size distribution (μm) D10 [1]: 7 μm | Particle Size distribution (μm) D90 [1]: 66 μm | Particle Size distribution (μm) D50 [1]: 29 μm | Dissolution time ([3]; Table 6, Example 5): 90 s | Interparticle space (% of bulk volume) ([6]; Table 6): 56 % of bulk volume | Specific surface area m^2/g [4]: 0.50 m^2/g | Bulk density (g/cm3) [7]: 0.90 g/cm3 | Skeletal density (g/cm3) [5]: 2.0 g/cm3
Compound: CC(=O)N(CC(O)CO)c1c(I)c(C(=O)NCC(O)CO)c(I)c(C(=O)NCC(O)CO)c1I (stereo not shown) [Conventional Sample #2, iohexol]

Particle Size distribution (μm) D50 ([1]; listed as 03202012/8): 12 μm | Particle Size distribution (μm) D10 ([1]; listed as 03202012/8): 7 μm | Particle Size distribution (μm) D90 ([1]; listed as 03202012/8): 19 μm | Dissolution time ([3]; Table 4, 1.8 g in 40 mL tap water at 10° C., manual shaking, listed as 03202012/8): 40 s | Dissolution time ([3]; Table 6, Example 5, listed as 03202012/8): 40 s | Interparticle space (% of bulk volume) ([6]; Table 6, listed as 03202012/8): 56 % of bulk volume | Specific surface area m^2/g ([4]; listed as 03202012/8): 0.50 m^2/g | Bulk density (g/cm3) ([7]; listed as 03202012/8): 0.90 g/cm3 | Skeletal density (g/cm3) [5]: 2.0 g/cm3
Compound: CC(=O)N(CC(O)CO)c1c(I)c(C(=O)NCC(O)CO)c(I)c(C(=O)NCC(O)CO)c1I (stereo not shown) [Batch 03202012/8, iohexol]

Particle Size distribution (μm) D50 ([1]; listed as 03202012/9): 20 μm | Particle Size distribution (μm) D10 ([1]; listed as 03202012/9): 11 μm | Particle Size distribution (μm) D90 ([1]; listed as 03202012/9): 35 μm | Dissolution time ([3]; Table 4, 1.8 g in 40 mL tap water at 10° C., manual shaking, listed as 03202012/9): 60 s | Dissolution time ([3]; Table 6, Example 5, listed as 03202012/9): 60 s | Interparticle space (% of bulk volume) ([6]; Table 6, listed as 03202012/9): 56 % of bulk volume | Specific surface area m^2/g ([4]; listed as 03202012/9): 0.50 m^2/g | Bulk density (g/cm3) ([7]; listed as 03202012/9): 0.90 g/cm3 | Skeletal density (g/cm3) [5]: 2.0 g/cm3
Compound: CC(=O)N(CC(O)CO)c1c(I)c(C(=O)NCC(O)CO)c(I)c(C(=O)NCC(O)CO)c1I (stereo not shown) [Batch 03202012/9, iohexol]
